Measured values reported in patent US20210283117A1, “PROPHYLACTIC OR THERAPEUTIC AGENT FOR PROSTATE CANCER” (KEIO UNIVERSITY, priority 2018, published 2021).
pIC50: −log10 of the molar value.

Columns and labels:
DU145 cell lines [1] = experiment: Antitumor effect on CRPC model mice, tumor volume; type: in vivo
Source text: 1×10^6 metastatic CRPC cell lines (DU145 cell lines) were subcutaneously inoculated to castrated male nude mice (BALB/C) to prepare subcutaneous tumor model mice. When the tumor size reached about 100 mm^3, the subcutaneous tumor model mice (CRPC model mice) were divided into three groups (control group, cabazitaxel administration group and cloperastine administration group). To the cloperastine administration group (n=5), a cloperastine hydrochloride (manufactured by Sigma-Aldrich Co. LLC) was orally administered daily at a dose of 12.5 mg/kg (body weight) per day in terms of cloperastine (“cloperastine administration group” in FIG. 7A). To the cabazitaxel administration group (n=5), cabazitaxel (manufactured by Carbosynth Limited) was intraperitoneally administered in a single dose of 10 mg/kg (body weight) (“cabazitaxel administration group” in FIG. 7A). On the other hand, any of the cloperastine hydrochloride and cabazitaxel was not administered to the control group (n=5) (control group in FIG. 7A).
The 1×10^6 DU145CR cell lines established in Example 5 were subcutaneously inoculated to castrated male nude mice (BALB/C) to prepare subcutaneous tumor model mice (cabazitaxel-resistant CRPC mice). When the tumor size reached about 100 mm^3, the subcutaneous tumor model mice were divided into three groups (control group, cabazitaxel administration group and cloperastine administration group). To the cloperastine administration group (n=5), a cloperastine hydrochloride (manufactured by Sigma-Aldrich Co. LLC) was orally administered daily at a dose of 12.5 mg/kg (body weight) per day in terms of cloperastine (“cloperastine administration group” in FIG. 7B). […] For the CRPC model mice and the cabazitaxel-resistant CRPC mice, tumor volumes were measured and an average value was calculated immediately after oral administration of the cloperastine hydrochloride (day 0) and 4 days, 8 days, 12 days and 16 days after the oral administration.

C4-2AT6 cell lines = experiment: Cell growth suppressive effect on enzalutamide-resistant prostate cancer cell lines (WST-1), Example 7; type: cell-based; details: cloperastine 0.1, 1, 10 μM, vs culture without cloperastine
Method: (§1) DU145 cell lines and PC3 cell lines (these cell lines were obtained from ATCC [American Type Culture Collection]) were cultured on a 96-well plate for 24 hours. […] As a control, an experiment was also conducted in which DU145 cell lines and PC3 cell lines were cultured in a culture solution free of a cloperastine hydrochloride.
(§2) For confirming that the cloperastine species has a cell growth suppressive effect on enzalutamide-resistant prostate cancer and cabazitaxel-resistant prostate cancer, enzalutamide-resistant prostate cancer cell lines (C4-2AT6 cell lines) and cabazitaxel-resistant prostate cancer cell lines (DU145CR cell lines) were used to analyze the cell growth property in the presence of cloperastine species in accordance with the method described in Example 2.

DU145CR cell lines [2] = experiment: Cell growth suppressive effect on cabazitaxel-resistant prostate cancer cell lines (WST-1), Example 7; type: cell-based; details: cloperastine 0.1, 1, 10 μM, vs culture without cloperastine
Method: as §1, §2

DU145CR cell lines [3] = experiment: Antitumor effect on cabazitaxel-resistant CRPC mice, tumor volume; type: in vivo
Source text: The 1×10^6 DU145CR cell lines established in Example 5 were subcutaneously inoculated to castrated male nude mice (BALB/C) to prepare subcutaneous tumor model mice (cabazitaxel-resistant CRPC mice). When the tumor size reached about 100 mm^3, the subcutaneous tumor model mice were divided into three groups (control group, cabazitaxel administration group and cloperastine administration group). To the cloperastine administration group (n=5), a cloperastine hydrochloride (manufactured by Sigma-Aldrich Co. LLC) was orally administered daily at a dose of 12.5 mg/kg (body weight) per day in terms of cloperastine (“cloperastine administration group” in FIG. 7B). To the cabazitaxel administration group (n=5), cabazitaxel (manufactured by Carbosynth Limited) was intraperitoneally administered in a single dose of 10 mg/kg (body weight) (“cabazitaxel administration group” in FIG. 7B). On the other hand, any of the cloperastine hydrochloride and cabazitaxel was not administered to the control group (n=5) (“control group” in FIG. 7B). For the CRPC model mice and the cabazitaxel-resistant CRPC mice, tumor volumes were measured and an average value was calculated immediately after oral administration of the cloperastine hydrochloride (day 0) and 4 days, 8 days, 12 days and 16 days after the oral administration.

DU145 cell lines [4] = experiment: EMT-related gene mRNA expression, quantitative PCR; type: cell-based; details: 10 μM cloperastine, 24 hours, vs control group
Method: (§3) For confirming that the cloperastine species has a suppressive effect on EMT in metastatic CRPC cells, metastatic CRPC cell lines (DU145 cell lines and PC3 cell lines) were cultured in the presence of the cloperastine species, and the gene expression profiles of EMT-related factors were analyzed.
(§4) DU145 cell lines and PC3 cell lines were cultured for 24 hours in the presence of 10 μM cloperastine or without cloperastine (cloperastine treatment group and control group, respectively), and mRNA was then extracted with “RNeasy Mini kit” (manufactured by QIAGEN Company). From the extracted mRNA, cDNA was synthesized with “PrimeScript RT reagent Kit” (manufactured by Takara Bio Inc.). For analyzing the mRNA expression levels of genes encoding six kinds of factors (E-cadherin, vimentin, “Zinc finger protein SNAI1”, “Zinc finger protein SNAI2”, “Zinc finger E-box-binding homeobox 1” and “Zinc finger E-box-binding homeobox 2”) (CDH1 gene, VIM gene, SNAI1 gene, SNAI2 gene, ZEB1 gene and ZEB2 gene, respectively), quantitative PCR analysis was performed with the primer and TaqMan probe sets (TaqMan Gene Expression Assays) (manufactured by Applied Biosystems Company) shown in Table 1 below, and CFX96 Real-Time System (manufactured by Bio-Rad Laboratories, Inc).

PC3 cell lines [5] = experiment: EMT-related gene mRNA expression, quantitative PCR; type: cell-based; details: 10 μM cloperastine, 24 hours, vs control group
Method: as §3, §4

DU145CR cell lines [6] = experiment: Antitumor effect by use in combination with cabazitaxel, cabazitaxel-resistant CRPC mice, tumor volume; type: in vivo
Source text: The 5×10^6 DU145CR cell lines established in Example 5 were subcutaneously inoculated to castrated male nude mice (BALB/C) to prepare subcutaneous tumor model mice (cabazitaxel-resistant CRPC mice). When the tumor size reached about 100 mm^3, the subcutaneous tumor model mice were divided into four groups (control group, cabazitaxel administration group, cloperastine administration group and cloperastine+cabazitaxel administration group). To the cabazitaxel administration group (n=5), cabazitaxel (manufactured by Carbosynth Limited) was intraperitoneally administered in a single dose of 10 mg/kg (body weight). To the cloperastine administration group (n=5), a cloperastine hydrochloride (manufactured by Sigma-Aldrich Co. LLC) was orally administered daily at a dose of 12.5 mg/kg (body weight) per day in terms of cloperastine. To the cloperastine+cabazitaxel administration group (n=5), the cloperastine hydrochloride was orally administered daily at a dose of 12.5 mg/kg (body weight) per day in terms of cloperastine, and cabazitaxel (manufactured by Carbosynth Limited) was intraperitoneally administered in a single dose of 10 mg/kg (body weight). […] For the cabazitaxel-resistant CRPC mice, tumor volumes were measured and an average value was calculated immediately after oral administration (day 0) and 4 days, 8 days and 12 days after the oral administration.

DU145 cell lines [7] = experiment: Cell growth suppressive effect, number of living cells (Premix WST-1), Example 2; type: cell-based; details: cloperastine 0.1, 1, 10 μM, 24 hours, vs culture without cloperastine
Method: (§5) For confirming that the cloperastine species has a cell growth suppressive effect on metastatic CRPC, metastatic CRPC cell lines (DU145 cell lines and PC3 cell lines) were cultured in the presence of the cloperastine species, and the cell growth property was analyzed.
as §1

PC3 cell lines [8] = experiment: as above; type: cell-based; details: cloperastine 0.1, 1, 10 μM, 24 hours, vs culture without cloperastine
Method: as §5, §1

DU145 cell lines [9] = experiment: Ki67 immunohistological staining; type: cell-based; details: 10 μM, 24 hours, vs culture without cloperastine
Method: (§6) For confirming that the cloperastine species has a cell growth suppressive effect and an apoptosis inducing effect on CRPC and cabazitaxel-resistant CRPC, metastatic CRPC cell lines (DU145 cell lines and PC3 cell lines) were cultured in the presence of the cloperastine species, and analysis was performed by an immunohistological staining method using an antibody to a cell growth marker (Ki67), and a TUNEL (TdT-mediateddUTPnickendlabeling) method.
(§7) DU145 cell lines and DU145CR cell lines were cultured on 96-well plates, respectively, for 24 hours, and to a culture solution, a cloperastine hydrochloride (manufactured by Sigma-Aldrich Co. LLC) was added to 10 μM. The cell lines were further cultured for 24 hours, and the cells were then fixed with 4% paraformaldehyde. The fixed cells were subjected to blocking treatment with a 1% BSA (bovine serum albumin) solution, and primary antibody reaction treatment with a Ki67 antibody (manufactured by Dako Company) was performed overnight at 4° C. […] The immunohistological-stained cell sample was observed under a phase-contrast microscope (see FIG. 8A), and the ratio of Ki67-positive cells was calculated. […] The cell sample stained by the TUNEL method was observed under a phase-contrast microscope (see FIG. 9A), and the ratio of TUNEL-positive cells (cells undergoing apoptosis) was calculated.

DU145CR cell lines [10] = experiment: Ki67 immunohistological staining; type: cell-based; details: 10 μM, 24 hours, vs culture without cloperastine
Method: as §6, §7

normal cells = experiment: Impact on growth of normal cells; type: cell-based; details: 1 μM
DU145 cell lines [11] = experiment: TUNEL method (apoptosis); type: cell-based; details: 10 μM, 24 hours, vs culture without cloperastine
Method: as §6, §7

DU145CR cell lines [12] = experiment: TUNEL method (apoptosis); type: cell-based; details: 10 μM, 24 hours, vs culture without cloperastine
Method: as §6, §7

DU145 cell lines [13] = experiment: Invasion assay, xCELLigence, Matrigel basement membrane matrix; type: cell-based; details: 1 μM cloperastine hydrochloride, 0 to 48 hours, vs control group
Method: For confirming the anti-prostate cancer effect of the cloperastine species, DU145 cell lines were cultured in the presence of the cloperastine species, and the invasiveness of the cell lines was analyzed (invasion assay).
To a culture solution added to each well of Real-Time Cell Analyzer xCELLigence (manufactured by ACEA Biosciences Inc.), a cloperastine hydrochloride (manufactured by Sigma-Aldrich Co. LLC) was added to 1 μM, and 4.0×10^4 DU145 cell lines were added. The cell lines were then cultured, and the number of cells passing through a Matrigel basement membrane matrix (manufactured by Corning Incorporated) was measured over time (0 to 48 hours) (cloperastine treatment group). As a control for comparison, DU145 cell lines were cultured in a culture solution free of a cloperastine hydrochloride, and the same experiment was conducted (control group).

DU145 cell lines [14] = experiment: In vitro analysis of cabazitaxel resistance, number of living cells (WST-1); type: cell-based; details: Homo sapiens, DU-145, 24 hours
DU145CR cell lines [15] = experiment: as above; type: cell-based; details: 24 hours
Method: DU145CR cell lines were established by culturing DU145 cell lines in the presence of 0.2 nM cabazitaxel (manufactured by Carbosynth Limited) for about 2 years while gradually increasing the cabazitaxel concentration to 3 nM.

DU145CR cell lines [16] = experiment: In vivo analysis of cabazitaxel resistance, subcutaneous tumor model mice (DU145CR vs DU145); details: cabazitaxel 10 mg/kg single intraperitoneal dose; 12 days after administration
Source text: The 1×10^6 established DU145CR cell lines and 1×10^6 DU145 cell lines were subcutaneously inoculated to castrated male nude mice (BALB/C), respectively, to prepare subcutaneous tumor model mice (DU145CR mice and DU145 mice). When the tumor size reached about 200 mm^3, the subcutaneous tumor model mice were divided into four groups (DU145 mouse group, cabazitaxel administration DU145 mouse group, DU145CR mouse group and cabazitaxel administration DU145CR mouse group), and to the cabazitaxel administration DU145 mouse group and the cabazitaxel administration DU145CR mouse group (n=5 for each group), cabazitaxel (manufactured by Carbosynth Limited) was intraperitoneally administered in a single dose of 10 mg/kg (body weight). Cabazitaxel was not administered to the DU145 mouse group and the DU145CR mouse group (n=5 for each group). Immediately after oral administration (day 0) and 4 days, 8 days and 12 days after the oral administration, tumor volumes were measured and an average value was calculated.

Clc1ccc([C@H](OCCN2CCCCC2)c2ccccc2)cc1 (racemic) [cloperastine, 1-{2-[(RS)-(4-chlorophenyl) (phenyl)methoxy]ethyl}piperidine]
tumor volume vs control group (DU145 cell lines [1]; 12.5 mg/kg per day oral, daily): smaller than the tumor volume in the control group | tumor volume decrease level vs cabazitaxel administration group (DU145 cell lines [1]; cloperastine 12.5 mg/kg per day oral vs cabazitaxel 10 mg/kg single i.p.): higher than the tumor volume decrease level in the cabazitaxel administration group | number of living cells (C4-2AT6 cell lines): significantly smaller number of living cells in a concentration-dependent manner | number of living cells (DU145CR cell lines [2]): significantly smaller number of living cells in a concentration-dependent manner | tumor volume (DU145CR cell lines [3]; 12.5 mg/kg per day oral, daily): considerably reduced the tumor volume | expression levels of mRNA encoding vimentin, SNAI1, SNAI2, ZEB1, ZEB2 (DU145 cell lines [4]): all lower | expression level of mRNA encoding E-cadherin (PC3 cell lines [5]; PC3 (FIG. 2B)): higher | expression levels of mRNA encoding vimentin, SNAI1, SNAI2, ZEB1, ZEB2 (PC3 cell lines [5]; PC3): all lower | tumor volume vs control group (DU145CR cell lines [6]; cloperastine 12.5 mg/kg per day oral, day 12, p<0.001): statistically significant difference between the cloperastine administration group and the control group | number of living cells (DU145 cell lines [7]): significantly smaller number of living cells in a concentration-dependent manner | number of living cells (PC3 cell lines [8]): significantly smaller number of living cells in a concentration-dependent manner | ratio of Ki67-positive cells (DU145 cell lines [9]): lower ratio of Ki67-positive cells | ratio of Ki67-positive cells (DU145CR cell lines [10]): lower ratio of Ki67-positive cells | impact on growth of normal cells (normal cells): no impact on growth of normal cells | ratio of TUNEL-positive cells (DU145 cell lines [11]): higher ratio of TUNEL-positive cells | ratio of TUNEL-positive cells (DU145CR cell lines [12]): higher ratio of TUNEL-positive cells | invasion of cells (DU145 cell lines [13]): significantly suppressed

CO[C@H]1C(=O)[C@]2(C)[C@@H](OC)C[C@H]3OC[C@@]3(OC(C)=O)[C@H]2[C@H](OC(=O)c2ccccc2)[C@]2(O)C[C@H](OC(=O)[C@H](O)[C@@H](NC(=O)OC(C)(C)C)c3ccccc3)C(C)=C1C2(C)C [cabazitaxel]
pIC50 (DU145 cell lines [14]): 8.42 | tumor volume vs control group (DU145 cell lines [1]; cabazitaxel 10 mg/kg single intraperitoneal dose, day 16, p<0.01): statistically significant difference between the cabazitaxel administration group and the control group | pIC50 (DU145CR cell lines [15]): 7.96 | tumor volume (DU145CR cell lines [3]; cabazitaxel 10 mg/kg single intraperitoneal dose): hardly enabled suppression of an increase in tumor volume | tumor volume vs control group (DU145CR cell lines [6]; cabazitaxel 10 mg/kg single i.p., day 12, p>0.05): no statistically significant difference | tumor volume, cabazitaxel administration DU145CR mouse group vs cabazitaxel administration DU145 mouse group (DU145CR cell lines [16]): about twice
